Experimental data published in the supplement of paper PMC10307832.

Assays:
Experiment in all cases: relative viability (nuclei count vs DMSO), 5 days (fraction); higher = more cells survive
[1] = compound: Cn1cc(-c2cnn3c(N)c(Br)c([C@@H]4CCCNC4)nc23)cn1 + CC(C)C[C@H](NC(=O)[C@H](Cc1ccccc1)NC(=O)c1cnccn1)B(O)O [Bortezomib] (partner 0.002 µM)
Summary of the method: (§1)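 Relative viability divides the nuclei count in treated wells by that in vehicle wells. Lung cancer cell lines were seeded in 1536-well plates, dosed by pin tool the next day, and fixed and stained after 5 days in one step with final 0.05% Triton X-100, 1% formaldehyde and 1 ug/ml Hoechst. Dosing was a single drug or a fixed anchor-drug dose plus five library-drug doses (not always all listed) in √10 steps, and values are medians of duplicate plates imaged at 4×.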

[2] = compound: Cn1cc(-c2cnn3c(N)c(Br)c([C@@H]4CCCNC4)nc23)cn1 + CS(=O)(=O)CCNCc1ccc(-c2ccc3ncnc(Nc4ccc(OCc5cccc(F)c5)c(Cl)c4)c3c2)o1 [Lapatinib] (partner 2 µM)
Summary of the method: as §1

[3] = compound: Cn1cc(-c2cnn3c(N)c(Br)c([C@@H]4CCCNC4)nc23)cn1 + NC(=O)Nc1cc(-c2cccc(F)c2)sc1C(=O)N[C@H]1CCCNC1 [AZD7762] (partner 0.2 µM)
Summary of the method: as §1

[4] = compound: Cn1cc(-c2cnn3c(N)c(Br)c([C@@H]4CCCNC4)nc23)cn1 + Nc1ncn([C@H]2C[C@H](O)[C@@H](CO)O2)c(=O)n1 [Decitabine] (partner 2 µM)
Summary of the method: as §1

Cell Line | relative viability ([1]; first compound 0.05 µM) | relative viability ([1]; first compound 0.1581 µM) | relative viability ([1]; first compound 0.5 µM) | relative viability ([1]; first compound 1.581 µM) | relative viability ([1]; first compound 5 µM) | relative viability ([2]; first compound 0.05 µM) | relative viability ([2]; first compound 0.1581 µM) | relative viability ([2]; first compound 0.5 µM) | relative viability ([2]; first compound 1.581 µM) | relative viability ([2]; first compound 5 µM) | relative viability ([3]; first compound 0.05 µM) | relative viability ([3]; first compound 0.1581 µM) | relative viability ([3]; first compound 0.5 µM) | relative viability ([3]; first compound 1.581 µM) | relative viability ([3]; first compound 5 µM) | relative viability ([4]; first compound 0.05 µM) | relative viability ([4]; first compound 0.1581 µM) | relative viability ([4]; first compound 0.5 µM) | relative viability ([4]; first compound 1.581 µM) | relative viability ([4]; first compound 5 µM)
NCI-H1355 | 1.23 | 1.33 | 1.17 | 1.15 | 1.24 | 1 | 1.08 | 0.92 | 0.969 | 0.859 | 0.718 | 0.846 | 0.672 | 0.623 | 0.458 | 0.344 | 0.332 | 0.378 | 0.417 | 0.358
NCI-H1437 | 0.515 | 0.581 | 0.577 | 0.432 | 0.316 | 0.802 | 0.975 | 0.741 | 0.563 | 0.505 | 1.11 | 1.18 | 1.08 | 1.01 | 0.889 | 0.556 | 0.695 | 0.655 | 0.623 | 0.21
NCI-H1651 | 0.914 | 0.954 | 0.89 | 0.898 | 0.56 | 0.733 | 0.874 | 0.708 | 0.494 | 0.367 | 0.436 | 0.407 | 0.387 | 0.378 | 0.219 | 0.566 | 0.648 | 0.613 | 0.552 | 0.385
NCI-H1666 | 1.09 | 0.804 | 0.786 | 0.802 | 0.721 | 0.576 | 0.648 | 0.555 | 0.559 | 0.594 | 0.78 | 0.82 | 0.813 | 0.845 | 0.861 | 0.629 | 0.699 | 0.719 | 0.698 | 0.713
NCI-H1734 | 1.02 | 1.13 | 0.798 | 0.865 | 0.746 | 1.06 | 1.08 | 0.917 | 0.944 | 0.778 | 0.531 | 0.572 | 0.48 | 0.469 | 0.474 | 0.518 | 0.491 | 0.49 | 0.437 | 0.448
NCI-H1755 | 1.04 | 1.03 | 0.952 | 0.879 | 0.711 | 1.15 | 1.14 | 1.09 | 0.743 | 0.758 | 0.518 | 0.511 | 0.416 | 0.4 | 0.307 | 0.722 | 0.81 | 0.774 | 0.793 | 0.855
NCI-H1792 | 0.801 | 1.1 | 0.703 | 0.551 | 0.371 | 0.84 | 1.06 | 0.335 | 0.718 | 0.784 | 0.613 | 1.3 | 0.729 |  | 0.412 | 0.542 | 0.627 | 0.587 |  | 0.516
NCI-H1915 | 1.14 | 1.01 | 1.06 | 0.784 | 1.03 | 1 | 0.959 | 0.989 | 0.825 | 0.954 | 0.666 | 0.67 | 0.718 | 0.69 | 0.709 | 0.225 | 0.255 | 0.299 | 0.24 | 0.311
